Data taken from US7732618B2, “Benzimidazole acetic acids exhibiting CRTH2 receptor antagonism and uses thereof” (Wyeth, priority 2004, dated 2010).
pIC50, pKi: −log10 of the molar value.

Assays:
human CRTH2 [1] = biological target: T1, human CRTH2 (Homo sapiens, UniProt Q9Y5Y4); test: CRTH-2 binding assay (scintillation proximity assay, inhibition of 3H-PGD2 binding); design: expressed in transfected cells; host or cells: 293EBNA-hCRTH2 cells (membrane preparation); settings: membranes from 293EBNA-hCRTH2 cells, 3H-PGD2 3.6 nM; Ki calculated from IC50
T1 sequence (Q9Y5Y4 1-395): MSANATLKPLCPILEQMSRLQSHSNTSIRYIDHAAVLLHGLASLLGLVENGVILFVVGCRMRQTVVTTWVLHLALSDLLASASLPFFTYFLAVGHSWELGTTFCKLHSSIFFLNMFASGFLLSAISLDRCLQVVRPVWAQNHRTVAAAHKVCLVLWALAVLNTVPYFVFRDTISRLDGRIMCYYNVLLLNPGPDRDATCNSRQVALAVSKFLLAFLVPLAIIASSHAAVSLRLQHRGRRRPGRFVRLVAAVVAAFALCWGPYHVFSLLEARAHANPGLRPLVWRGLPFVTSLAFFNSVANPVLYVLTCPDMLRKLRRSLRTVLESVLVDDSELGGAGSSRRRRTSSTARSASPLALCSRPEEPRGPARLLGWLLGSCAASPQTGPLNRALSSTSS

human CRTH2 [2] = biological target: T1, human CRTH2; test: CRTH2 fluorescent imaging assay (intracellular calcium); assay type: cell-based; design: expressed in transfected cells; host or cells: HEK 293EBNA-hCRTH2 cells or HT1080-hCRTH2 cells; settings: antagonism of PGD2-induced calcium increase; HEK 293EBNA-hCRTH2 or HT1080-hCRTH2 cells; read-out: RAGE hCRTH2 IC50
Protocol: The ability of the disclosed compounds to act as agonists for the hCRTH2 receptor was determined by their ability to cause increases in intracellular calcium via binding to the CRTH2 receptor.
Assays were performed on HEK 293EBNA-hCRTH2 cells that had been grown in DMEM media containing 10% FBS, […] puromycin and 1% penicillin/streptomycin/glutamine (PSG) at 37° C. in 5% CO2 or on HT1080-hCRTH2 cells (a HT1080 cell line stably expressing human CRTH2) that had been grown in alphaMEM media containing 10% FBS, 500 μg/ml hygromycin, 200 nM methotrexate and 1% PSG at 37° C. in 5% CO2.
For the assay, HEK 293EBNA-hCRTH2 cells or HT1080-hCRTH2 cells were grown to approximately 90% confluency and then dislodged from the plate with Trypsin-EDTA, resuspended in DMEM media, seeded in 384 well plates at 2×10^4 cells per well and incubated overnight at 37° C. The cells were loaded with a calcium sensing dye by removing the growth media and replacing it with 30 μL of dye loading Ringer's buffer (136 mM […], 5.4 mM D-Glucose, 20 mM Hepes pH 7.4, 2.1 mM MgCl2, 0.8 mM CaCl2, 0.2% BSA with 1× Calcium3Dye (Molecular Devices) and 2.5 mM Probenecid (Sigma)) per well. The cells were incubated at 37° C. for 1 hour to allow the dye to enter the cells. Compounds were serially diluted in DMSO and then diluted to 4× their final concentration with Ringer's buffer. The compounds were added to a 384 well plate in quadruplicate. In addition to test compounds, several wells contained Ringer's buffer with DMSO. These wells serve as control wells. 10 μL was transferred from compound/control plate to the plate containing cells loaded with dye by a fluorescent imaging plate reader (Molecular Devices). The fluorescence was measured every 4 seconds for 4 minutes. These measurements indicated the level of intracellular calcium. Increases in fluorescence relative to wells containing buffer only indicated an agonist effect of the compound. Measurement at various compound concentrations allowed one to determine the EC50 for these compounds. Following the 4 minute incubation with compound, 20 μL of Ringer's buffer with either 10 nM or 500 nM PGD2 (approximate EC75 for PGD2 in HEK 293EBNA-hCRTH2 cells and HT1080-hCRTH2 cells, respectively) was added to the wells. Inhibition by the compounds of the calcium response due to antagonism of PGD2 action on CRTH2 is reflected by a decrease in fluorescent signal relative to wells containing no compound. The fluorescence was measured every 2 seconds for 10 seconds before addition of PGD2 and every 2 seconds for 110 seconds following addition. Measurement at various compound concentrations allowed one to determine the IC50 for the compounds. EC50 and IC50 values were determined from the experimental results by nonlinear regression using the Prism 4.0 software.

pKi (human CRTH2 [1])	pIC50 (human CRTH2 [2])	SMILES
> 7.00	7.29	CCCc1nc2cc(N(Cc3ccc(Cl)cc3)S(=O)(=O)c3ccc(F)cc3)ccc2n1CC(=O)O [Example 43, {5-[(4-Chloro-benzyl)-(4-fluoro-benzenesulfonyl)-amino]-2-propyl-benzoimidazol-1-yl}-acetic acid]
> 7.00	7.33	CCCc1nc2cc(N(CCCOc3ccccc3)S(=O)(=O)c3ccc(F)cc3)ccc2n1CC(=O)O [Example 49, {5-[(4-Fluoro-benzenesulfonyl)-(3-phenoxy-propyl)-amino]-2-propyl-benzoimidazol-1-yl}-acetic acid]
> 7.00	8.15	CCCc1nc2cc(N(Cc3ccccc3)C(=O)c3cccs3)ccc2n1CC(=O)O [Example 70, {5-[Benzyl-(thiophene-2-carbonyl)-amino]-2-propyl-benzoimidazol-1-yl}-acetic acid]
> 7.00	7.66	CCCc1nc2cc(N(CCOc3ccc(Cl)cc3)S(=O)(=O)c3ccc(F)cc3)ccc2n1CC(=O)O [Example 47, {5-[[2-(4-Chloro-phenoxy)-ethyl]-(4-fluoro-benzenesulfonyl)-amino]-2-propyl-benzoimidazol-1-yl}-acetic acid]
> 6.00	6.43	CCCc1nc2cc(N(C3CCCCC3)S(=O)(=O)c3ccc(F)cc3)ccc2n1CC(=O)O [Example 46, {5-[(Cyclohexyl)-(4-fluoro-benzenesulfonyl)-amino]-2-propyl-benzoimidazol-1-yl}-acetic acid]
